Results taken from US7776819B2, “Targeted drug delivery of pain and addiction therapies using opioid receptor-mediated internalization” (The Board of Trustees of the University of Illinois, priority 2005, dated 2010).
Where a SMILES comes first, the peptide text is derived from it.

Molecular target: T1, human mu opioid receptors (hMOR) (Homo sapiens, UniProt P35372)
T1 construct: expressed in transfected cells; host or cells: CHO cells, stably transfected (G418 selection); membrane preparation
Assay: [3H]DAMGO displacement receptor binding assay, CHO-hMOR membranes
Description: Receptor membranes were prepared from CHO cells transfected with opioid mu receptors. Binding was performed at 30° C. in 50 mM pH 7.4 tris HCl buffer for 1 h for CHO-MOR (100 μg protein/reaction, 1 nM 3H-DAMGO). Reactions were terminated by vacuum filtration through GF/B filters pretreated with 0.2% polyethylenimine. These were then washed twice with ice-cold PBS. Filter-bound radioactivity was determined by liquid scintillation counting. Nonspecific binding was determined in the presence of 20 μM DAMGO.
Briefly, membranes were prepared from CHO-hMOR cells by Polytron homogenization at setting 6 for 2 min on ice, followed by centrifugation at 20,000 g for 30 min at 4° C. Protein content was determined by the Coomassie protein assay method (Pierce Biotechnology, Rockford, Ill.) and bovine serum albumin as the standard. MOR receptor binding was conducted in triplicate with 1 nM [^3H]DAMGO in 50 mM Tris HCl buffer (pH 7.4) at 30° C. for 1 h (50 μg protein/reaction). Nonspecific binding was determined in the presence of 20 μM unlabelled DAMGO. Reactions were terminated by rapid vacuum filtration through GF/B filters presoaked with 0.2% polyethylenimine. Filter-bound radioactivity was determined by liquid scintillation counting (Beckman Coulter Inc., Fullerton, Calif.). Binding data representing the mean ±SD were analyzed using Prism program (GraphPad Software, San Diego, Calif.).

T1 sequence (P35372 whole entry): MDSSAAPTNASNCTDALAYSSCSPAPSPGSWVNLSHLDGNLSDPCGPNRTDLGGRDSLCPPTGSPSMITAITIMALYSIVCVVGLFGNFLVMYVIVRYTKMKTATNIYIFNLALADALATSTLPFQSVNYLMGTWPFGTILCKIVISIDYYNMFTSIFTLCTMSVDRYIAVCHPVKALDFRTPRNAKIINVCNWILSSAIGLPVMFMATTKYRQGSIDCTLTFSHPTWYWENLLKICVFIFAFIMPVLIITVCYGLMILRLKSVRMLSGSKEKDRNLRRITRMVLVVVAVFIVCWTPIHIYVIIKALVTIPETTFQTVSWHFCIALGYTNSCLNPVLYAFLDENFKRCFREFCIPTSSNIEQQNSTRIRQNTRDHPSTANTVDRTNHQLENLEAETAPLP

C[C@@H](NC(=O)[C@@H](N)Cc1ccc(O)cc1)C(=O)N[C@@H](Cc1ccccc1)C(=O)NCC(=O)N[C@@H](Cc1ccc(O)cc1)C(=O)N1CCC[C@H]1C(=O)N[C@@H](CO)C(=O)N[C@@H](CS)C(=O)O [c-p-dermorphin] (HELM PEPTIDE1{Y.[dA].F.G.Y.P.S.C}$$$$V2.0) was tested, and the IC50 was 0.0253 µM.
